The assay deals with T1, Na+/K+-ATPase.
T1 construct: gene ATP1A1
The experiment in a line: in vitro enzymatic assay, inorganic phosphate release during ATP hydrolysis (Taussky-Shorr, […] nm). Format: biochemical.

A word on the EC50: it is the concentration giving half of the maximal effect. For the molecule `C[C@H]1O[C@@H](O[C@H]2[C@@H](O)C[C@H](O[C@H]3[C@@H](O)C[C@H](O[C@H]4CC[C@@]5(C)[C@H](CC[C@@H]6[C@@H]5CC[C@]5(C)[C@@H](C7=CC(=O)OC7)CC[C@]65O)C4)O[C@@H]3C)O[C@@H]2C)C[C@H](O)[C@@H]1O` [Digitoxin], the EC50 was determined as 780 nM.

(Values after paper PMC6274445, “Compound Library Screening Identified Cardiac Glycoside Digitoxin as an Effective Growth Inhibitor of Gefitinib-Resistant Non-Small Cell Lung Cancer via Downregulation of α-Tubulin and Inhibition of Microtubule Formation” (Molecules, 2016).)
